From patent publication US20250019652A1, “PRODUCTION METHOD FOR SHEET-LIKE RETINAL TISSUE” (RIKEN, priority 2021, published 2025)

Key:
Assay type in all cases: cell-based, human
[1] = system: single cell suspension of dispersed retinal cells (KhES-1-derived); assay: Layer structure formation-promoting factor: reformed aggregates, immunostained sections (Example 3); details: 3 μM CHIR99021
Protocol: The aggregates of Day 26 from initiation of the suspension culture prepared as in Example 1 were washed with PBS, and a neuronal cell dispersion solution (manufactured by FUJIFILM Wako Pure Chemical Corp.) was added. After incubation at 37° C., they were dispersed into single cells by pipetting. These cells were suspended in 100 μL of a serum-free medium so as to become 3.0×10^4 cells per well of a non-cell adhesive 96-well culture plate (trade name: PrimeSurface 96-well V-bottom plate, manufactured by Sumitomo Bakelite Co., Ltd.), and suspension-cultured at 37° C. and 5% CO2.
The aggregates of Day 15 (corresponding to Differentiation Day 41) and Day 28 (corresponding to Differentiation Day 54) after suspension culture for aggregate reforming were fixed in 4% PFA, and frozen sections were prepared. These frozen sections were subjected to immunostaining using DAPI and anti-Chx10 antibody (trade name: Anti CHX10 Antibody, Exalpha Biologicals Inc.), anti-β-catenin antibody (R&D Systems, Inc.), anti-collagen IV antibody (Abcam plc), anti-Zo-1 antibody (Invitrogen Corp.), anti-Ki67 antibody (Becton, Dickinson and Company), anti-Pax6 antibody (BioLegend, Inc.), anti-RxR-γ (RxRg) antibody (Spring Bioscience Corp.), anti-CRX antibody (Abnova Corp.), anti-NRL antibody (R&D Systems, Inc.), anti-recoverin antibody (manufactured by Proteintech Group, Inc.), anti-Islet-1 antibody (Developmental Studies Hybridoma Bank (DSHB)), anti-GS antibody (Sigma-Aldrich Co., LLC), anti-Brn3 antibody (Santa Cruz Biotechnology), and anti-calretinin antibody (R&D Systems, Inc.).
These immunostained sections were observed under a bright field microscope and a fluorescence microscope (BZ-X810 manufactured by Keyence Corp.) and a confocal laser scanning fluorescence microscope (SP-8 manufactured by Leica), and the results are shown in FIGS. 11 to 20. […] From FIGS. 19 and 20, it was confirmed that RxR-Y(RxRg)-positive and CRX-positive cone progenitor cells and recoverin-positive and CRX-positive photoreceptor progenitor cells were differentiated, and the differentiation of Islet-1-positive and Brn3-positive retinal ganglion cells and calretinin-positive amacrine cells was also confirmed.

[2] = system: retinal cells (NR) dispersed into single cells (KhES-1-derived, dd33); assay: Seeding onto Transwell: concentration and addition period of CHIR99021 (Example 10); details: 1 μM to 9 μM CHIR99021 for 3 days to 9 days
Protocol: The aggregates of 33 days (dd33) after the start of the suspension culture prepared as in Example 1 were washed with PBS, and a neuronal cell dispersion solution (manufactured by FUJIFILM Wako Pure Chemical Corp.) was added. After incubation at 37° C., they were dispersed into single cells by pipetting. […] 3 days or later from seeding, the medium was replaced once every 3 to 4 days.
Accordingly, these cell sheets were fixed in 4% PFA, and frozen sections were prepared. These frozen sections were subjected to immunostaining using DAPI.

[3] = system: retinal cells (NR) dispersed into single cells (KhES-1-derived); assay: Seeding onto Transwell: confirmation of effect of CHIR99021 (Example 9); details: CHIR99021 5 μM or 3 μM with Y-27632 (and SAG); Day 14
Protocol: The aggregates of Days 15 to 30 from initiation of the suspension culture prepared as in Example 1 were washed with PBS, and a neuronal cell dispersion solution (manufactured by FUJIFILM Wako Pure Chemical Corp.) was added. After incubation at 37° C., they were dispersed into single cells by pipetting.
When cell sheets obtained on Culture Day 14 for aggregate reforming were observed, it was confirmed that the cells were engrafted under all the conditions (FIG. 29). Accordingly, these cell sheets were fixed in 4% PFA, and frozen sections were prepared. These frozen sections were subjected to immunostaining using DAPI and anti-Zo-1 antibody (trade name: Anti Zo-1 Antibody, manufactured by Invitrogen Corp.) and anti-collagen IV antibody (Abcam plc). These immunostained sections were observed under a confocal laser scanning fluorescence microscope.

[4] = system: single cells dispersed from KhES-1- and 1231A3-derived aggregates; assay: Aggregate proliferation-promoting factor: aggregate area in suspension culture with Y-27632 (Example 2); details: SAG 300 nM or CHIR99021 3 μM in addition to 10 μM Y-27632; Day 1, 7, 14
Protocol: The aggregates of Day 20 (1231A3) and Day 27 (KhES-1) from initiation of the suspension culture prepared as in Example 1 were washed with PBS, and a neuronal cell dispersion solution (manufactured by FUJIFILM Wako Pure Chemical Corp.) was added. After incubation at 37° C., they were dispersed into single cells by pipetting. These cells were suspended in 100 μL of a serum-free medium containing 10 μM Y-27632 (FUJIFILM Wako Pure Chemical Corp.) so as to become 2 to 5×10^5 cells per well of a non-cell adhesive 96-well culture plate (trade name: PrimeSurface 96-well V-bottom plate, manufactured by Sumitomo Bakelite Co., Ltd.), and suspension-cultured at 37° C. and 5% CO2. […] The reformed states of the aggregates were observed under a bright field microscope and a fluorescence microscope (BZ-X810 manufactured by Keyence Corp.) on Day 1, Day 7, and Day 14 after suspension culture for aggregate reforming. The areas of the aggregates were measured in Image J. The results of the KhES-1-derived cells are shown in FIG. 6 (an average value from 12 […] measured). The results of the 1231A3-derived cells in which the reformed states of the aggregates of Day 1 after suspension culture were observed are shown in FIG. 7.

Cc1c[nH]c(-c2cnc(NCCNc3ccc(C#N)cn3)nc2-c2ccc(Cl)cc2Cl)n1 [CHIR99021]
reforming of aggregates ([1]; Day 1, Day 14, Day 28): aggregates were reformed
apical-basal polarity (Zo-1, collagen IV) ([1]; Day 15 and Day 28 sections): epithelial tissue having apical and basal polarities was formed
layer structure formation (Rx::Venus, Chx10) ([1]; Day 15 and Day 28 sections): a layer structure where Rx::Venus-positive and Chx10-positive neural retinal progenitor cells were contained was formed
reforming of thick sheets [2]: thick sheets of Rx::Venus-positive retinal progenitor cells were reformed
apical and basal polarity of sheet [3]: sheets of Rx::Venus-positive retinal progenitor cells having apical and basal polarities were formed again
size of reformed aggregates versus only Y-27632 [4]: larger aggregates were reformed
